# Results from patent publication EP4122463A1, “DRUG IN THE FORM OF A COMPLEX OF 3,3'-DIINDOLYLMETHANE WITH Beta-CYCLODEXTRIN” (Kiselev, Vsevolod Ivanovich, priority 2020, dated 2021).
# Key:
# [1] = Concentration of 3,3'-diindolylmethane in the blood plasma of patients; assay type: in vivo; conditions: DIM dosage 100 mg
# Source text: (§1) In clinical studies, effectiveness of a water-soluble complex based on cyclodextrins and crystalline 3,3'-diindolylmethane in equal doses was compared. […]
# [2] = cited from earlier work
# [3] = Solubility of 3,3'-diindolylmethane as a function of concentration of various cyclodextrins; assay type: physicochemical; conditions: solutions of α-, β- and γ-cyclodextrin, figure 2
# Source text: Solubility of 3,3'-diindolylmethane was investigated as a function of concentration of various cyclodextrins. The following were used in the experiments: • α-cyclodextrin (αCD); • β-cyclodextrin (βCD); • γ-cyclodextrin (γCD).
# [4] = Clinical comparison of effectiveness of water-soluble complexes and crystalline DIM in equal doses; assay type: in vivo; conditions: all studied groups of patients
# Source text: as §1
smiles,measurement,setting,value
"c1ccc2c(Cc3c[nH]c4ccccc34)c[nH]c2c1 [DIM crystalline, 3,3'-diindolylmethane]",The concentration of DIM in plasma,[1],less than 30 ng / ml
same,"Solubility of 3,3'-diindolylmethane in DMSO",[2],18-20%
same,"maximum solubility of 3,3'-diindolylmethane",[3],"maximum solubility of 3,3'-diindolylmethane is achieved in combination with β-cyclodextrin (βCD)"
same,effectiveness (dynamics in patients),[4],absence of such
